# Reference: PMC10909971, “Glucose 6‐phosphate dehydrogenase variants increase NADPH pools for yeast isoprenoid production” (FEBS Open Bio, 2024)
# Read-outs that look alike come from different tables or passages of the source.
# B1: ScG6PD (G6PD, ZWF1) (Saccharomyces cerevisiae S288C) (protein)
# chain: MSEGPVKFEKNTVISVFGASGDLAKKKTFPALFGLFREGYLDPSTKIFGYARSKLSMEEDLKSRVLPHLKKPHGEADDSKVEQFFKMVSYISGNYDTDEGFDELRTQIEKFEKSANVDVPHRLFYLALPPSVFLTVAKQIKSRVYAENGITRVIVEKPFGHDLASARELQKNLGPLFKEEELYRIDHYLGKELVKNLLVLRFGNQFLNASWNRDNIQSVQISFKERFGTEGRGGYFDSIGIIRDVMQNHLLQIMTLLTMERPVSFDPESIRDEKVKVLKAVAPIDTDDVLLGQYGKSEDGSKPAYVDDDTVDKDSKCVTFAAMTFNIENERWEGVPIMMRAGKALNESKVEIRLQYKAVASGVFKDIPNNELVIRVQPDAAVYLKFNAKTPGLSNATQVTDLNLTYASRYQDFWIPEAYEVLIRDALLGDHSNFVRDDELDISWGIFTPLLKHIERPDGPTPEIYPYGSRGPKGLKEYMQKHKYVMPEKHPYAWPVTKPEDTKDN
# B2: ScG6PD (G6PD, ZWF1) (Saccharomyces cerevisiae S288C; N403D) (protein)
# chain: MSEGPVKFEKNTVISVFGASGDLAKKKTFPALFGLFREGYLDPSTKIFGYARSKLSMEEDLKSRVLPHLKKPHGEADDSKVEQFFKMVSYISGNYDTDEGFDELRTQIEKFEKSANVDVPHRLFYLALPPSVFLTVAKQIKSRVYAENGITRVIVEKPFGHDLASARELQKNLGPLFKEEELYRIDHYLGKELVKNLLVLRFGNQFLNASWNRDNIQSVQISFKERFGTEGRGGYFDSIGIIRDVMQNHLLQIMTLLTMERPVSFDPESIRDEKVKVLKAVAPIDTDDVLLGQYGKSEDGSKPAYVDDDTVDKDSKCVTFAAMTFNIENERWEGVPIMMRAGKALNESKVEIRLQYKAVASGVFKDIPNNELVIRVQPDAAVYLKFNAKTPGLSNATQVTDLDLTYASRYQDFWIPEAYEVLIRDALLGDHSNFVRDDELDISWGIFTPLLKHIERPDGPTPEIYPYGSRGPKGLKEYMQKHKYVMPEKHPYAWPVTKPEDTKDN
# What was measured:
# [1] = tested on: T1, G6PD-6PGL (linker-less fusion); conditions: read-out: G6PD-6PGL, 100 mM Tris-HCl pH 8.0, 10 mM MgCl2, 25 °C, G6PD domain
# T1 construct: gene ZWF1
# [2] = tested on: T2, G6PD-L-6PGL (fusion with linker); conditions: read-out: G6PD-L-6PGL, 100 mM Tris-HCl pH 8.0, 10 mM MgCl2, 25 °C, G6PD domain
# T2 construct: gene ZWF1
# purified protein = substrate: NC(=O)c1ccc[n+]([C@@H]2O[C@H](COP(=O)(O)OP(=O)(O)OC[C@H]3O[C@@H](n4cnc5c(N)ncnc54)[C@H](OP(=O)(O)O)[C@@H]3O)[C@@H](O)[C@H]2O)c1; test: purified protein; conditions: G6P held constant, 100 mM Tris-HCl pH 8.0, 10 mM MgCl2, 25 °C
molecule,measurement,setting,value
NC(=O)c1ccc[n+]([C@@H]2O[C@H](COP(=O)(O)OP(=O)(O)OC[C@H]3O[C@@H](n4cnc5c(N)ncnc54)[C@H](OP(=O)(O)O)[C@@H]3O)[C@@H](O)[C@H]2O)c1 [NADP^+],Km,[1]; G6P held constant,2600 ± 400 nM
same,Km,[2]; G6P held constant,5.6 ± 0.2 µM
O=P(O)(O)OC[C@H]1OC(O)[C@H](O)[C@@H](O)[C@@H]1O (stereo partly drawn) [glucose 6‐phosphate],Km,[1]; NADP+ held constant,600 nM
same,Km,[2]; NADP+ held constant,2.3 ± 0.2 µM
B1,Km,purified protein,0.6 ± 0.1 µM
B2,Km,purified protein,0.8 ± 0.1 µM
